The test system of the assay is L1210 leukemia ip in BDF1 mice, survival T/C. Description: NCI In Vivo Anticancer Drug Screen. Data for tumor model L1210 Leukemia (intraperitoneal) in B6D2F1 (BDF1) mice. To be noted: endpoint: mean survival time, higher = longer survival. The gist of the method: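 Mice bearing the transplanted tumor received compound or vehicle. Survival of the treated group was divided by that of the vehicle-treated control group to give the ratio.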

Where [1] appears, read: dose: 50.0 mg/kg/injection, schedule: Q01DX009 (ip), vehicle: saline.
Where [2] appears, read: dose: 100.0 mg/kg/injection, schedule: Q01DX009 (ip), vehicle: saline.
Where [3] appears, read: dose: 100.0 mg/kg/injection, schedule: Q01DX009 (ip), vehicle: saline with Tween-80.
Setting [4] is: dose: 100.0 mg/kg/injection, schedule: Q04DX003 (ip), vehicle: Klucel (hydroxypropylcellulose) (HPC).
The mark [5] stands for this setting: dose: 200.0 mg/kg/injection, schedule: Q04DX003 (ip), vehicle: Klucel (hydroxypropylcellulose) (HPC).
Setting [6] is: dose: 200.0 mg/kg/injection, schedule: Q01DX009 (ip), vehicle: saline with Tween-80.
[7] abbreviates: dose: 400.0 mg/kg/injection, schedule: Q01DX009 (ip), vehicle: saline with Tween-80.
The mark [8] stands for this setting: dose: 25.0 mg/kg/injection, schedule: Q01DX009 (ip), vehicle: saline.
Setting [9] is: dose: 100.0 mg/kg/injection, schedule: Q01DX001 (ip), vehicle: saline.
The mark [10] stands for this setting: dose: 100.0 mg/kg/injection, schedule: Q04DX003 (ip), vehicle: saline.
[11] abbreviates: dose: 200.0 mg/kg/injection, schedule: Q01DX001 (ip), vehicle: saline.
Where [12] appears, read: dose: 400.0 mg/kg/injection, schedule: Q01DX001 (ip), vehicle: saline.
Setting [13] is: dose: 50.0 mg/kg/injection, schedule: Q01DX001 (ip), vehicle: carboxymethylcellulose (CMC).
[14] abbreviates: dose: 100.0 mg/kg/injection, schedule: Q01DX001 (ip), vehicle: carboxymethylcellulose (CMC).
Setting [15] is: dose: 200.0 mg/kg/injection, schedule: Q01DX001 (ip), vehicle: carboxymethylcellulose (CMC).
The mark [16] stands for this setting: dose: 100.0 mg/kg/injection, schedule: Q04DX002 (ip), vehicle: Klucel (hydroxypropylcellulose) (HPC).
Where [17] appears, read: dose: 200.0 mg/kg/injection, schedule: Q04DX002 (ip), vehicle: Klucel (hydroxypropylcellulose) (HPC).
Where [18] appears, read: dose: 400.0 mg/kg/injection, schedule: Q04DX002 (ip), vehicle: Klucel (hydroxypropylcellulose) (HPC).
The mark [19] stands for this setting: dose: 100.0 mg/kg/injection, schedule: Q01DX009 (ip), vehicle: Klucel (hydroxypropylcellulose) (HPC).
Setting [20] is: dose: 100.0 mg/kg/injection, schedule: Q04DX003 (ip), vehicle: saline with Tween-80.
Setting [21] is: dose: 200.0 mg/kg/injection, schedule: Q04DX003 (ip), vehicle: saline with Tween-80.

“And” between values parts separate entries of the source, which are not always exact repeats. Equal entries are not always repeated. Inconclusive results and toxic doses are left out.

For the compound `C=CCCC(=O)OC(C)(C)C`, the T/C reads like this: (dose: 25.0 mg/kg/injection, schedule: Q01DX009 (ip), vehicle: water) 96 % of control; (dose: 50.0 mg/kg/injection, schedule: Q01DX009 (ip), vehicle: water) 96 % of control; (dose: 100.0 mg/kg/injection, schedule: Q01DX009 (ip), vehicle: water) 98 % of control; (dose: 200.0 mg/kg/injection, schedule: Q01DX009 (ip), vehicle: water) 97 % of control.
As for `NCCc1cc(O)c(O)c(O)c1`, the T/C reads like this: under setting [1], 104 % of control; under setting [2], 113 % of control.
For the compound `CC1(C)OC2C(COC(=O)Oc3ccccc3)OC(n3cnc4c(=S)nc[nH]c43)C2O1` (stereo not given), the T/C is, setting by setting: under setting [3], 117 % of control; under setting [4], 100 % of control; under setting [5], 109 % of control.
Consider `CCCCc1ccc(N=Cc2ccc(C=Nc3ccc(CCCC)cc3)cc2)cc1`, for which the T/C by setting is: under setting [3], 92 % of control; under setting [6], 97 % of control; under setting [7], 94 % of control.
As for `COc1ccc(OC(C)OCCOCCOC(C)=O)cc1` (stereo not given), the T/C reads like this: (dose: 100.0 mg/kg/injection, schedule: Q04DX002 (ip), vehicle: saline) 104 % of control; (dose: 200.0 mg/kg/injection, schedule: Q04DX002 (ip), vehicle: saline) 93 % of control; (dose: 400.0 mg/kg/injection, schedule: Q04DX002 (ip), vehicle: saline) 107 % of control.
Consider `COC1OC(OC)[CH]([Hg][Cl])C1OC` (stereo not given), for which the T/C by setting is: (dose: 3.13 mg/kg/injection, schedule: Q01DX009 (ip), vehicle: saline with Tween-80) 94 % of control; (dose: 6.25 mg/kg/injection, schedule: Q01DX009 (ip), vehicle: saline with Tween-80) 92 % of control; (dose: 6.25 mg/kg/injection, schedule: Q04DX003 (ip), vehicle: saline) 100 % of control; (dose: 12.5 mg/kg/injection, schedule: Q01DX009 (ip), vehicle: saline with Tween-80) 91 % of control; (dose: 12.5 mg/kg/injection, schedule: Q04DX003 (ip), vehicle: saline) 100 % of control.
Turning to `CN1CN(C)CN(C)C1`, the T/C was 105 % of control under setting [8]; 108 % of control under setting [1]; 102 % of control (dose: 50.0 mg/kg/injection, schedule: Q04DX003 (ip), vehicle: saline); 101 % of control under setting [9]; 110 % of control under setting [2]; 102 % of control and 107 % of control under setting [10]. The T/C by setting is: under setting [11], 92 % of control; under setting [12], 97 % of control.
With `CCOC(=N)CCCl`, the T/C is, setting by setting: under setting [3], 94 % of control; under setting [6], 102 % of control; under setting [7], 96 % of control.
On to `CCCCCCN(CCCCCC)CCCCCC`, for which the T/C runs as follows: (dose: 8.0 mg/kg/injection, schedule: Q01DX015 (ip), vehicle: carboxymethylcellulose (CMC)) 97 % of control; (dose: 16.0 mg/kg/injection, schedule: Q01DX015 (ip), vehicle: carboxymethylcellulose (CMC)) 100 % of control; (dose: 32.0 mg/kg/injection, schedule: Q01DX015 (ip), vehicle: carboxymethylcellulose (CMC)) 102 % of control; (dose: 64.0 mg/kg/injection, schedule: Q01DX015 (ip), vehicle: carboxymethylcellulose (CMC)) 96 % of control; under setting [9], 97 % of control; (dose: 128.0 mg/kg/injection, schedule: Q01DX015 (ip), vehicle: carboxymethylcellulose (CMC)) 97 % of control. For the same compound, the T/C was 106 % of control under setting [11] and 100 % of control under setting [12].
For `CCCCCCNP(=O)(OCC)OCC`, the T/C by setting is: under setting [13], 95 % of control; under setting [14], 93 % of control; under setting [15], 101 % of control.
As for `O=C(NCCCCN1CC1)C(=O)NCCCCN1CC1`, the T/C (dose: 1.5 mg/kg/injection, schedule: Q04DX003 (ip), vehicle: Klucel (hydroxypropylcellulose) (HPC)) is 108 % of control; the T/C (dose: 3.0 mg/kg/injection, schedule: Q04DX003 (ip), vehicle: Klucel (hydroxypropylcellulose) (HPC)) is 118 % of control; the T/C (dose: 8.0 mg/kg/injection, schedule: Q04DX003 (ip), vehicle: Klucel (hydroxypropylcellulose) (HPC)) is 155 % of control; the T/C (dose: 18.0 mg/kg/injection, schedule: Q04DX003 (ip), vehicle: Klucel (hydroxypropylcellulose) (HPC)) was 177 % of control.
In the case of `CC(=O)C(C(C)=O)C(C)=O.CC(=O)C(C(C)=O)C(C)=O.CC(=O)C(C(C)=O)C(C)=O.[Cr]`, the T/C was 100 % of control under setting [13]; 94 % of control under setting [14]; 105 % of control under setting [15]; 100 % of control (dose: 400.0 mg/kg/injection, schedule: Q01DX001 (ip), vehicle: carboxymethylcellulose (CMC)).
For the compound `CCN(CC)Cc1cc(Nc2c3ccc(Cl)cc3nc3ccc(OC)cc23)ccc1O`, the T/C runs as follows: under setting [16], 105 % of control; under setting [17], 112 % of control; under setting [18], 108 % of control.
`CC(C)(CCCl)NCc1ccccc1`: the T/C is 101 % of control under setting [8], 104 % of control under setting [1], 88 % of control under setting [2] and 99 % of control under setting [10].
For the compound `N#CCc1ccc2c(c1)Sc1ccccc1O2`, the T/C is, setting by setting: under setting [19], 94 % of control; (dose: 200.0 mg/kg/injection, schedule: Q01DX009 (ip), vehicle: Klucel (hydroxypropylcellulose) (HPC)) 100 % of control; (dose: 400.0 mg/kg/injection, schedule: Q01DX009 (ip), vehicle: Klucel (hydroxypropylcellulose) (HPC)) 93 % of control.
Regarding `O=C1CC(CO)CN1CCc1ccccc1` (stereo not given), the T/C reads like this: under setting [20], 96 % of control; under setting [21], 94 % of control; (dose: 400.0 mg/kg/injection, schedule: Q04DX003 (ip), vehicle: saline with Tween-80) 96 % of control.
On to `C=CCCCCCCCCC(=O)N/N=C/c1ccccc1OC`, for which the T/C by setting is: under setting [16], 110 % of control; under setting [17], 104 % of control; under setting [18], 110 % of control.
On to `CC(NC(=O)NCCCl)c1ccco1` (stereo not given), for which the T/C is, setting by setting: (dose: 6.25 mg/kg/injection, schedule: Q01DX009 (ip), vehicle: Klucel (hydroxypropylcellulose) (HPC)) 104 % of control; (dose: 12.5 mg/kg/injection, schedule: Q01DX009 (ip), vehicle: Klucel (hydroxypropylcellulose) (HPC)) 98 % of control; (dose: 25.0 mg/kg/injection, schedule: Q01DX009 (ip), vehicle: Klucel (hydroxypropylcellulose) (HPC)) 109 % of control; (dose: 50.0 mg/kg/injection, schedule: Q01DX009 (ip), vehicle: Klucel (hydroxypropylcellulose) (HPC)) 114 % of control; under setting [19], 106 % of control; under setting [4], 101 % of control. Besides, the T/C under setting [5] is 93 % of control.
As for `CCC(CC)OC(=O)Nc1cccc(OC(=O)NC)c1`, the T/C under setting [20] was 104 % of control and the T/C under setting [21] is 95 % of control.
Take `CC1(C)CN(N=O)C(C)(C)CN1N=O`: the T/C is 99 % of control (dose: 100.0 mg/kg/injection, schedule: Q04DX003 (ip), vehicle: acetone); 103 % of control (dose: 200.0 mg/kg/injection, schedule: Q04DX003 (ip), vehicle: acetone); 96 % of control (dose: 400.0 mg/kg/injection, schedule: Q04DX003 (ip), vehicle: acetone).
Consider `CC(=O)OC1CCC2(C)C3CCC4(C)C(CCC45OC5(C)OC(C)=O)C3CC3OC32C1` (stereo not given), for which the T/C was 111 % of control (dose: 50.0 mg/kg/injection, schedule: Q01DX001 (sc), vehicle: steriod suspending solution); 98 % of control (dose: 100.0 mg/kg/injection, schedule: Q01DX001 (sc), vehicle: steriod suspending solution); 106 % of control (dose: 200.0 mg/kg/injection, schedule: Q01DX001 (sc), vehicle: steriod suspending solution); 101 % of control (dose: 400.0 mg/kg/injection, schedule: Q01DX001 (sc), vehicle: steriod suspending solution).
For `CC(=O)N/N=C(/C)C1CC2CCC1C2` (stereo not given), the T/C runs as follows: under setting [9], 104 % of control; under setting [11], 106 % of control; under setting [12], 112 % of control.

Source of the values: PubChem BioAssay AID248 (DTP/NCI, 2004).
